Measurements: the NIST ThermoML archive (doi:10.1007/s10765-014-1718-x)
Numbers after ± are expanded uncertainties.

Settings: for thermal diffusivity: Optical interferometry; for speed of sound: Light diffraction method

`CCCCC` [pentane] showed a thermal diffusivity (306.16 K, Liquid) of 7.18e-08 ± 3.7e-09 m2/s, a speed of sound (308.14 K, Liquid) of 963.73 ± 5 m/s and a speed of sound (318.45 K, Liquid) of 915.77 ± 4.7 m/s. It also gave a thermal diffusivity (323.16 K, Liquid) of 6.84e-08 ± 3.6e-09 m2/s, a speed of sound (328.23 K, Liquid) of 866.06 ± 4.5 m/s and a speed of sound (338.02 K, Liquid) of 815.68 ± 4.2 m/s. It also gave a thermal diffusivity (338.39 K, Liquid) of 6.42e-08 ± 3.3e-09 m2/s, a speed of sound (348.32 K, Liquid) of 765.39 ± 4 m/s and a speed of sound (348.68 K, Gas) of 189.16 ± 1.2 m/s. For the same compound, the thermal diffusivity (353.16 K, Liquid) was 6.19e-08 ± 3.2e-09 m2/s, the thermal diffusivity (358.13 K, Liquid) was 6.07e-08 ± 3.2e-09 m2/s and the speed of sound (358.22 K, Gas) was 187.01 ± 1.2 m/s. It also gave a speed of sound (359.03 K, Liquid) of 715.2 ± 3.7 m/s, a thermal diffusivity (362.37 K, Liquid) of 5.91e-08 ± 3.1e-09 m2/s and a speed of sound (367.9 K, Gas) of 185.11 ± 1.2 m/s. For the same compound, the thermal diffusivity (368.18 K, Liquid) was 5.79e-08 ± 3e-09 m2/s, the speed of sound (368.31 K, Liquid) was 667.88 ± 3.5 m/s and the thermal diffusivity (373.47 K, Liquid) was 5.74e-08 ± 3e-09 m2/s. For the same compound, the speed of sound (377.79 K, Gas) was 183.06 ± 1.1 m/s, the thermal diffusivity (378.2 K, Liquid) was 5.69e-08 ± 3e-09 m2/s and the speed of sound (379.04 K, Liquid) was 618.28 ± 3.2 m/s. For the same compound, the thermal diffusivity (383.42 K, Liquid) was 5.53e-08 ± 2.9e-09 m2/s, the thermal diffusivity (388.15 K, Liquid) was 5.45e-08 ± 2.8e-09 m2/s and the speed of sound (388.18 K, Gas) was 178.8 ± 1.1 m/s. For the same compound, the speed of sound (388.52 K, Liquid) was 571.45 ± 3 m/s, the thermal diffusivity (393.32 K, Liquid) was 5.4e-08 ± 2.8e-09 m2/s and the thermal diffusivity (396.29 K, Liquid) was 5.35e-08 ± 2.8e-09 m2/s. For the same compound, the speed of sound (398.16 K, Liquid) was 529.46 ± 2.8 m/s, the speed of sound (398.34 K, Gas) was 174.99 ± 1.1 m/s and the thermal diffusivity (399.16 K, Liquid) was 5.24e-08 ± 2.7e-09 m2/s. The thermal diffusivity (403.33 K, Liquid) was 5.16e-08 ± 2.7e-09 m2/s, the speed of sound (406.96 K, Liquid) was 483.6 ± 2.6 m/s and the speed of sound (408.14 K, Gas) was 169.99 ± 1.1 m/s. For the same compound, the thermal diffusivity (408.63 K, Liquid) was 5.12e-08 ± 2.7e-09 m2/s, the thermal diffusivity (413.33 K, Liquid) was 5.01e-08 ± 2.6e-09 m2/s and the speed of sound (417.94 K, Liquid) was 428.66 ± 2.3 m/s. For the same compound, the speed of sound (418.17 K, Gas) was 162.61 ± 1.1 m/s, the thermal diffusivity (418.39 K, Liquid) was 4.93e-08 ± 2.6e-09 m2/s and the thermal diffusivity (423.55 K, Gas) was 2.31e-07 ± 6.9e-09 m2/s. It also gave a thermal diffusivity (423.61 K, Liquid) of 4.84e-08 ± 2.5e-09 m2/s, a thermal diffusivity (428.12 K, Gas) of 2.14e-07 ± 6.4e-09 m2/s and a speed of sound (428.17 K, Gas) of 155.41 ± 1 m/s. For the same compound, the thermal diffusivity (428.17 K, Liquid) was 4.69e-08 ± 2.4e-09 m2/s, the speed of sound (428.38 K, Liquid) was 382.43 ± 2.1 m/s and the thermal diffusivity (433.15 K, Gas) was 1.92e-07 ± 5.8e-09 m2/s. It also gave a speed of sound (433.19 K, Gas) of 150.86 ± 1 m/s, a thermal diffusivity (433.29 K, Liquid) of 4.58e-08 ± 2.4e-09 m2/s and a thermal diffusivity (436.13 K, Gas) of 1.77e-07 ± 5.3e-09 m2/s. For the same compound, the thermal diffusivity (436.19 K, Liquid) was 4.49e-08 ± 2.3e-09 m2/s, the speed of sound (438.21 K, Gas) was 146.71 ± 1 m/s and the speed of sound (438.23 K, Liquid) was 327.33 ± 1.8 m/s. It also gave a thermal diffusivity (438.87 K, Gas) of 1.64e-07 ± 4.9e-09 m2/s, a thermal diffusivity (439.21 K, Liquid) of 4.43e-08 ± 2.3e-09 m2/s and a thermal diffusivity (442.09 K, Gas) of 1.49e-07 ± 4.5e-09 m2/s. The thermal diffusivity (442.35 K, Liquid) was 4.38e-08 ± 2.3e-09 m2/s, the speed of sound (443.15 K, Gas) was 140.85 ± 0.98 m/s and the thermal diffusivity (445.16 K, Liquid) was 4.34e-08 ± 2.3e-09 m2/s. It also gave a thermal diffusivity (445.19 K, Gas) of 1.35e-07 ± 4.1e-09 m2/s, a speed of sound (447.95 K, Gas) of 136.18 ± 0.96 m/s and a thermal diffusivity (448.08 K, Liquid) of 4.2e-08 ± 2.2e-09 m2/s. For the same compound, the thermal diffusivity (448.25 K, Gas) was 1.2e-07 ± 3.6e-09 m2/s, the speed of sound (448.62 K, Liquid) was 267.2 ± 1.5 m/s and the thermal diffusivity (451.23 K, Gas) was 1.08e-07 ± 3.2e-09 m2/s. It also gave a thermal diffusivity (451.38 K, Liquid) of 4.08e-08 ± 2.1e-09 m2/s, a speed of sound (453.26 K, Gas) of 130.15 ± 0.93 m/s and a thermal diffusivity (454.03 K, Gas) of 9.78e-08 ± 2.9e-09 m2/s. The thermal diffusivity (455.2 K, Liquid) was 3.84e-08 ± 2e-09 m2/s, the thermal diffusivity (457.04 K, Gas) was 8.48e-08 ± 2.5e-09 m2/s and the speed of sound (457.87 K, Liquid) was 209.66 ± 1.3 m/s. The speed of sound (458.28 K, Gas) was 123.99 ± 0.91 m/s, the thermal diffusivity (458.4 K, Liquid) was 3.55e-08 ± 1.8e-09 m2/s and the thermal diffusivity (460.05 K, Gas) was 7.23e-08 ± 2.2e-09 m2/s. The thermal diffusivity (460.1 K, Liquid) was 3.37e-08 ± 1.8e-09 m2/s, the thermal diffusivity (462.08 K, Gas) was 5.64e-08 ± 1.7e-09 m2/s and the speed of sound (463.16 K, Gas) was 116.39 ± 0.88 m/s. For the same compound, the speed of sound (463.27 K, Liquid) was 170.65 ± 1.1 m/s, the thermal diffusivity (463.41 K, Liquid) was 3.04e-08 ± 1.6e-09 m2/s and the thermal diffusivity (464.04 K, Gas) was 4.16e-08 ± 1.2e-09 m2/s. It also gave a thermal diffusivity (466.12 K, Gas) of 3.45e-08 ± 1e-09 m2/s, a speed of sound (466.14 K, Liquid) of 145.22 ± 1 m/s and a thermal diffusivity (466.37 K, Liquid) of 2.59e-08 ± 1.3e-09 m2/s. For the same compound, the speed of sound (469.33 K, Liquid) was 111.31 ± 0.89 m/s.
